PubChem BioAssay (NCI)
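Where inhibition never reached the appropriate level, the endpoint shown equals the highest concentration tested. Otherwise, values were interpolated linearly from a five-concentration, 48-hour dose response in 96-well plates. TGI marks complete inhibition of growth.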

How the values were obtained:
Assay in all cases: growth of human tumour cells (NCI), 48 h
[1] = tested on: HOP-62 NSCLC
[2] = tested on: CAKI-1 renal
[3] = tested on: NCI/ADR-RES ovarian

SMILES	TGI [1] [µM]	TGI [2] [µM]	TGI [3] [µM]
CN(C)CC(CN(C)C)c1ccccn1	> 100	> 100	> 100
Cc1nc(N)c(N2CCNCC2)c(=O)[nH]1	> 100	–	> 100
CC(=O)OCC1OC(N2C(c3ccccc3)=CC(c3ccccc3)C(C#N)=C2S)C(OC(C)=O)C(OC(C)=O)C1OC(C)=O (centres undefined)	17.9	7.73	> 100
O=C(c1ccccc1)c1c2ccccn2c2cccc[n+]12	> 100	> 100	> 100
Cc1c(Cc2ccccc2)n(COCCCO)c(=O)[nH]c1=O	> 100	> 100	> 100
S=C1Cc2c([nH]c3ccccc23)-c2ccccc2N1	62.3	79	> 100
CC1=C2C3=C(C)C(=O)C(C)(C)CC[C@@]3(C)[C@]2(C)CCC(C)(C)C1=O	> 100	> 100	> 100
CCN(CC)Cc1cc(Nc2ccnc3ccc4c(nnn4C)c23)ccc1O	19	33.3	52.7
O=c1[nH]nc(-c2cccc(Br)c2)[nH]1	> 100	> 100	> 100
N#Cc1nc(COCCOCc2ccccc2)oc1N	> 100	> 100	> 100
C=CCN1C(=O)/C(=C/c2ccccc2)NC1=S	> 100	> 100	> 100
CC(=O)NCc1nc(C#N)c(N)o1	> 100	> 100	> 100
COc1cc(C2c3cc4c(cc3[C@@H](Nc3ccccc3)C3CO[C@@H](OC)[C@H]23)OCO4)cc(OC)c1O (some centres undefined)	> 25	–	> 25
CC1CN=C(Nc2ccc(S(N)(=O)=O)cc2)S1 (centres undefined)	> 100	> 100	> 100
O=[N+]([O-])C(C(Cl)=C(Cl)Cl)=C(N1CCOCC1)N1CCOCC1	> 100	> 100	–
CC(=O)O[C@@H]1C=C(C)[C@H](CBr)O[C@@]2(C)CC[C@H](Br)C(C)(C)[C@H]12	> 100	> 100	> 100
Nc1nc(Cl)cc(NCC2(CO)CC(OCc3ccccc3)C2)n1 (centres undefined)	> 100	> 100	> 100
Cc1oc2nc(N(C)C)nc(Cl)c2c1C	> 100	> 100	> 100
NC(N)=N/N=C/c1c(Cl)nc2sccn12	66.8	> 100	> 100
Brc1ccc2c(-c3nc(-c4c[nH]c5ccc(Br)cc45)cs3)c[nH]c2c1	29.3	14.5	18.1
CNC(=O)N1CCN(C(=O)NC)CCN(C(=O)NC)CC1	> 100	–	> 100

SMILES	TGI [1] [µM]	TGI [2] [µM]	TGI [3] [µM]
CC(C(=O)N1c2ccccc2Sc2ccccc21)N1c2ccccc2Sc2ccccc21 (centres undefined)	> 100	–	> 100
Cc1cc(NS(=O)(=O)c2ccc(N=Nc3c(O)c(C(=O)O)cc4ccccc34)cc2)nc(C)n1	> 100	> 100	> 100
O=C(CC(=O)N(C(=O)c1ccccc1)c1ccc(Cl)cc1)N/N=C\c1cc(N=Nc2ccccc2Cl)ccc1O	> 100	> 100	–
Cc1cc(C)cc(Nc2nnc3n2S(=O)(=O)c2cc(C#N)c(Cl)cc2S3)c1	9.25	12.6	6.51
Cc1nnc([C@@]2(C)CC[C@H]3[C@@H](CC=C4C[C@@H](O)CC[C@@]43C)[C@@H]2CC#N)o1	> 100	> 100	> 100
O=C(CCc1ccc(O)cc1)NCCc1ccc(O)cc1	> 100	> 100	> 100
Nc1nc(Cl)cc(NCC2(CO)COC2)n1	> 100	> 100	> 100
N#CC1=C(N2CCCC2)NC(=O)CC1=O	> 100	> 100	> 100
Clc1cccc(Cl)c1C1SCC2=Nc3ccccc3CN21 (centres undefined)	48.9	> 100	40
NS(=O)(=O)c1nnc(NC(=O)c2ccccc2)s1	> 100	> 100	> 100
Oc1cc(O)c2c(c1)O[C@H](c1cc(O)c(O)c(O)c1)[C@H](O)C2	37.3	> 100	63.8
C1=C2C3=[N+](CCCC3)CC2Cc2ccsc21 (centres undefined)	> 100	> 100	> 100
C[N+](C)(N)CCC[N+](C)(C)N	> 100	> 100	> 100
Cc1ccccc1Nc1cn(COCc2ccccc2)c(=O)[nH]c1=O	> 100	> 100	> 100
CCOC(=O)C(=C(SC)SC)c1nn2c(=O)cc(C)nc2s1	> 100	60.1	90.4
C=C1CC[C@@]2(OC1)OC1C[C@H]3[C@@H]4CC=C5C[C@@H](O)CC(OC6OCC(OC(=O)[C@@H](O)[C@@H](C)CC)C(OC(C)=O)C6OC6OC(C)C(O)C(O)C6O)[C@]5(C)[C@H]4CC[C@]3(C)C1[C@@H]2C (some centres undefined)	–	7.85	6
O=C(Nc1ccc2nc(-c3ccccc3)cn2c1)Oc1ccccc1	> 100	> 100	> 100
CCC1c2[nH]c3ccccc3c2C[C@H]2C(=O)NC(CCC(=O)OC(C)(C)C)C(=O)N12 (some centres undefined)	> 100	> 100	> 100
COC(=O)CCC(=O)NC1c2cccc3cccc(c23)Cn2c(=O)n(C)c(=O)n21 (centres undefined)	> 100	> 100	> 100
COc1ccccc1N1C(=O)/C(=C\c2cccc(Oc3ccccc3)c2)SC1c1ccccc1 (centres undefined)	> 100	> 100	> 100
Cc1cccc2c(N)c3cccc(C(=O)NCCCNCCN)c3nc12	18.3	26.3	77.9

SMILES	TGI [1] [µM]	TGI [2] [µM]	TGI [3] [µM]
O=C(c1ccc(Cl)cc1Cl)N(C(=O)N1CCCCC1)c1ccccc1	–	> 100	> 100
O=P(c1ccccc1)(c1ccccc1)C(NCc1ccccc1)c1ccc(F)cc1 (centres undefined)	42.6	38	41.2
COC1(OC)C2(Cl)CCC1(Cl)C(OC(C)=O)C2 (centres undefined)	> 100	> 100	> 100
O=C(CNc1ccc(Cl)cc1)Nn1c(-c2ccccc2)nc2ccccc2c1=O	19.9	23.6	19
Cc1cc(O)c(/C=N/C(=S)NCCc2ccccc2)c(=O)o1	> 100	> 100	> 100
CC[C@@H]1/C=C/C=C/C[C@H](C)[C@@H](O)[C@](C)(O)C(=O)[C@H](C)[C@@H](O)[C@H](C)C(=O)[C@H](C)[C@@H](O)[C@H](C)/C=C/C(=O)O[C@H]2[C@@H](C)[C@@H](CC1)O[C@]1(O[C@H](CC(C)O)[C@H](C)CC1=O)[C@@H]2C (some centres undefined)	8.41	18	14.8
CCCCn1c(C)c(C(=O)OCC)c2cc(OCc3ccc(C(=O)Nn4c(C)ccc4C)cc3)c(Br)cc21	> 100	> 100	> 100
O=C(CC(=O)n1nc(-c2ccccc2)c(N=Nc2ccc(Cl)cc2)c1-c1ccccc1)Nc1cccc(Cl)c1	> 100	–	–
Cc1ccc2nc3ccccc3c(C3C4C(=O)N(c5ccc(Br)cc5Cl)C(=O)C4ON3C(C(N)=O)c3ccccc3)c2c1 (centres undefined)	> 25	10.5	–
CCOC(=O)NC(Nc1ccc(S(=O)(=O)Nc2ncccn2)cc1)(C(=O)OCC)C(F)(F)F (centres undefined)	> 100	> 100	> 100
CCCN=C(NC(=O)c1ccc(Cl)cc1)SC	> 100	> 100	> 100
CCOC(=O)/C(O)=C(/C=NC(=S)c1ccncc1)C(=O)OCC	> 100	> 100	> 100
CCOC(=O)c1c(SC(=O)/C=C/c2ccccc2)n(-c2ccccc2)c(=S)n(-c2ccccc2)c1=O	> 100	> 100	> 100
Cc1[nH]c(=O)[nH]c(=S)c1C(=O)NC(C)(CO)CO	> 100	> 100	> 100
COC(=O)c1ccc2c(c1)CC1(C2)Cc2cc3c(cc2C1=O)CCC3 (centres undefined)	> 100	96.5	51.3
C=C(C)[C@@H](C(=O)OC)N1C(=O)c2ccccc2C1=O	> 100	> 100	> 100
O=P(O)(O)CN1CCN(CP(=O)(O)O)CCN(CP(=O)(O)O)CCN(CP(=O)(O)O)CC1	> 100	> 100	> 100
S=C(/N=c1/sc(Nc2ccccc2)nc2sc3c(c12)CCCC3)Nc1ccccc1	> 62.5	> 62.5	–
Nc1ccc(C(=O)Nn2c(-c3ccccc3)nc3ccccc3c2=O)cc1	> 100	–	–
CCSc1nc(N2CCOCC2)c2cn[nH]c2n1	> 100	> 100	> 100
C/C(=N\NC(=S)N1CC2CCC(CC2)C1)c1ccncn1	12.1	2.44	–
